Measured values as given in ChEMBL document CHEMBL1201862, “PubChem BioAssay data set” (2004).
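96-well plates; 48 h exposure; 5 concentrations. Endpoints by linear interpolation between flanking doses. Not reached: highest tested concentration assigned. The concentration for 50% growth inhibition is given as GI50.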 The source made the active and inactive calls. Rule as the data show it: active = GI50 up to about 1.1 µM and inactive = higher.

Key:
Assay in all cases: inhibition of tumour cell growth, NCI panel, 48 h
A549 = tested on: A549
DU-145 = tested on: DU-145
HCT-116 = tested on: HCT-116
HOP-92 = tested on: HOP-92
KM12 = tested on: KM12
LOX IMVI = tested on: LOX IMVI
MDA-MB-231 = tested on: MDA-MB-231
MDA-MB-435 = tested on: MDA-MB-435
NCI-H460 = tested on: NCI-H460
NCI/ADR-RES = tested on: NCI/ADR-RES
OVCAR-5 = tested on: OVCAR-5
OVCAR-8 = tested on: OVCAR-8
SF-268 = tested on: SF-268
SF-295 = tested on: SF-295
SK-MEL-28 = tested on: SK-MEL-28
SW-620 = tested on: SW-620
UO-31 = tested on: UO-31
M14 = tested on: M14
T47D = tested on: T47D
UACC-62 = tested on: UACC-62

| Compound | GI50 (A549) | GI50 (DU-145) | GI50 (HCT-116) | GI50 (HOP-92) | GI50 (KM12) | GI50 (LOX IMVI) | GI50 (MDA-MB-231) | GI50 (MDA-MB-435) | GI50 (NCI-H460) | GI50 (NCI/ADR-RES) | GI50 (OVCAR-5) | GI50 (OVCAR-8) | GI50 (SF-268) | GI50 (SF-295) | GI50 (SK-MEL-28) | GI50 (SW-620) | GI50 (UO-31) | GI50 (M14) | GI50 (T47D) | GI50 (UACC-62) |
| --- | --- | --- | --- | --- | --- | --- | --- | --- | --- | --- | --- | --- | --- | --- | --- | --- | --- | --- | --- | --- |
| NC(=O)C(N)Cc1ccc(O)cn1 (centres undefined) | > 100 µM (inactive) | > 100 µM (inactive) | > 100 µM (inactive) | > 100 µM (inactive) | > 100 µM (inactive) | > 100 µM (inactive) | > 100 µM (inactive) | > 100 µM (inactive) | > 100 µM (inactive) | > 100 µM (inactive) | > 100 µM (inactive) | > 100 µM (inactive) | > 100 µM (inactive) | > 100 µM (inactive) | > 100 µM (inactive) | > 100 µM (inactive) | > 100 µM (inactive) | – | – | – |
| COP(=O)(Cc1ccc(/C=C/C#N)o1)OC | > 100 µM (inactive) | > 100 µM (inactive) | > 100 µM (inactive) | > 100 µM (inactive) | > 100 µM (inactive) | – | > 100 µM (inactive) | > 100 µM (inactive) | > 100 µM (inactive) | > 100 µM (inactive) | – | > 100 µM (inactive) | > 100 µM (inactive) | – | > 100 µM (inactive) | > 10 µM (inactive) | – | > 100 µM (inactive) | > 100 µM (inactive) | > 100 µM (inactive) |
| CN1CCc2ccccc2C1Cc1ccccc1NC(=O)c1sc2ccccc2c1Cl (centres undefined) | > 100 µM (inactive) | > 100 µM (inactive) | > 100 µM (inactive) | > 100 µM (inactive) | > 100 µM (inactive) | – | > 100 µM (inactive) | > 100 µM (inactive) | > 100 µM (inactive) | > 100 µM (inactive) | – | > 100 µM (inactive) | > 100 µM (inactive) | > 100 µM (inactive) | > 100 µM (inactive) | > 100 µM (inactive) | > 100 µM (inactive) | > 100 µM (inactive) | > 100 µM (inactive) | > 100 µM (inactive) |
| CC(C)=CCC/C(C)=C/CC/C(C)=C/CC/C(C)=C/CC/C(C)=C/CC/C(C)=C/CC/C(C)=C/CC/C(C)=C/CC/C(C)=C/CO [SOLANESOL] | > 100 µM (inactive) | > 100 µM (inactive) | > 100 µM (inactive) | > 100 µM (inactive) | > 100 µM (inactive) | > 100 µM (inactive) | > 100 µM (inactive) | > 100 µM (inactive) | > 100 µM (inactive) | – | > 100 µM (inactive) | > 100 µM (inactive) | > 100 µM (inactive) | > 100 µM (inactive) | > 100 µM (inactive) | > 100 µM (inactive) | > 100 µM (inactive) | > 100 µM (inactive) | > 100 µM (inactive) | > 100 µM (inactive) |
| COc1ccc(/C=N/n2c(C)n[nH]c2=O)cc1 | > 100 µM (inactive) | > 100 µM (inactive) | > 100 µM (inactive) | – | > 100 µM (inactive) | – | > 100 µM (inactive) | > 100 µM (inactive) | > 100 µM (inactive) | > 100 µM (inactive) | > 100 µM (inactive) | > 100 µM (inactive) | > 100 µM (inactive) | > 100 µM (inactive) | > 100 µM (inactive) | > 100 µM (inactive) | > 100 µM (inactive) | > 100 µM (inactive) | > 100 µM (inactive) | > 100 µM (inactive) |
| CCN(CC)P(=O)(c1ccc2c(c1)OCCOCCOCCOCCO2)N(CC)CC | > 100 µM (inactive) | > 100 µM (inactive) | > 100 µM (inactive) | – | > 100 µM (inactive) | > 100 µM (inactive) | > 100 µM (inactive) | > 100 µM (inactive) | > 100 µM (inactive) | – | – | > 100 µM (inactive) | > 100 µM (inactive) | > 100 µM (inactive) | > 100 µM (inactive) | > 100 µM (inactive) | > 100 µM (inactive) | > 100 µM (inactive) | > 100 µM (inactive) | > 100 µM (inactive) |
| NNc1nc2ccccc2c(=O)n1NC(=O)C(=O)Nc1cccc(C(F)(F)F)c1 | > 100 µM (inactive) | – | > 100 µM (inactive) | > 100 µM (inactive) | > 100 µM (inactive) | > 100 µM (inactive) | > 100 µM (inactive) | > 100 µM (inactive) | > 100 µM (inactive) | > 100 µM (inactive) | > 100 µM (inactive) | > 100 µM (inactive) | > 100 µM (inactive) | > 100 µM (inactive) | > 100 µM (inactive) | > 100 µM (inactive) | > 100 µM (inactive) | > 100 µM (inactive) | > 100 µM (inactive) | > 100 µM (inactive) |
| CN1CCN(C(=S)N(C(=O)c2cccs2)C2CCCCC2)CC1 | > 100 µM (inactive) | > 100 µM (inactive) | – | > 100 µM (inactive) | > 100 µM (inactive) | > 100 µM (inactive) | > 100 µM (inactive) | > 100 µM (inactive) | > 100 µM (inactive) | – | > 100 µM (inactive) | > 100 µM (inactive) | > 100 µM (inactive) | > 10 µM (inactive) | > 100 µM (inactive) | > 100 µM (inactive) | > 100 µM (inactive) | > 100 µM (inactive) | > 100 µM (inactive) | > 100 µM (inactive) |
| Cc1cc(C)c2c(c1)C/C(=C\c1ccccc1C(=O)O)C2=O | 68.4 µM (inactive) | > 100 µM (inactive) | 76.6 µM (inactive) | 81.8 µM (inactive) | > 100 µM (inactive) | > 100 µM (inactive) | > 100 µM (inactive) | – | 11.7 µM (inactive) | – | > 100 µM (inactive) | 57 µM (inactive) | > 100 µM (inactive) | > 100 µM (inactive) | > 100 µM (inactive) | > 100 µM (inactive) | 73.3 µM (inactive) | > 100 µM (inactive) | 35.2 µM (inactive) | – |
| CC(NC(=O)C(CC(=O)OCc1ccccc1)NC(=O)OCc1ccccc1)c1ccccc1 (centres undefined) | 73.5 µM (inactive) | > 100 µM (inactive) | – | – | > 100 µM (inactive) | – | 79.3 µM (inactive) | > 100 µM (inactive) | > 100 µM (inactive) | > 100 µM (inactive) | > 100 µM (inactive) | > 100 µM (inactive) | > 100 µM (inactive) | 55.1 µM (inactive) | 90.2 µM (inactive) | > 100 µM (inactive) | > 100 µM (inactive) | 27.7 µM (inactive) | > 100 µM (inactive) | 37.8 µM (inactive) |
| Cc1cc2nc3c(N)nn(CCCN(C)C)c3nc2cc1C | > 100 µM (inactive) | > 100 µM (inactive) | 50.5 µM (inactive) | – | 93.8 µM (inactive) | – | 60.5 µM (inactive) | 90.8 µM (inactive) | 80.5 µM (inactive) | 59.7 µM (inactive) | > 100 µM (inactive) | 83 µM (inactive) | > 100 µM (inactive) | > 100 µM (inactive) | > 100 µM (inactive) | 56.9 µM (inactive) | 46.6 µM (inactive) | 30.1 µM (inactive) | > 100 µM (inactive) | 95.7 µM (inactive) |
| O=C(Cc1nc2ccc(C(=O)c3ccccc3)cc2nc1O)C(=O)Nc1ccc(Br)cc1 | > 100 µM (inactive) | – | 75.3 µM (inactive) | 71 µM (inactive) | 34.8 µM (inactive) | 79.4 µM (inactive) | > 100 µM (inactive) | 44.4 µM (inactive) | > 100 µM (inactive) | > 100 µM (inactive) | > 100 µM (inactive) | 96.2 µM (inactive) | > 100 µM (inactive) | > 100 µM (inactive) | > 100 µM (inactive) | > 100 µM (inactive) | 57.7 µM (inactive) | > 100 µM (inactive) | > 100 µM (inactive) | > 100 µM (inactive) |
| O=C1c2c(O)cccc2C(C(=O)CCCC(=O)C2c3cccc(O)c3C(=O)c3c(O)cccc32)c2cccc(O)c21 | 0.393 µM (active) | 0.519 µM (active) | 0.22 µM (active) | 0.217 µM (active) | 0.242 µM (active) | 0.194 µM (active) | 0.0822 µM (active) | 0.746 µM (active) | 0.0803 µM (active) | – | 0.469 µM (active) | 0.492 µM (active) | 0.248 µM (active) | 0.243 µM (active) | 0.538 µM (active) | 0.244 µM (active) | 0.417 µM (active) | 0.368 µM (active) | 0.279 µM (active) | 0.327 µM (active) |
| CC1=C/C(=N\OCC(=O)O)CC(c2ccc(C(C)C)cc2)C1 (centres undefined) | 60.3 µM (inactive) | > 100 µM (inactive) | 45.6 µM (inactive) | 29.5 µM (inactive) | 48.5 µM (inactive) | – | 54.8 µM (inactive) | 36.8 µM (inactive) | 42.2 µM (inactive) | 21.1 µM (inactive) | > 100 µM (inactive) | 27.9 µM (inactive) | – | 39.8 µM (inactive) | – | 34.3 µM (inactive) | – | 35.2 µM (inactive) | 65.3 µM (inactive) | 33.7 µM (inactive) |
| N#CC(C#N)=C1c2ccccc2C(=NN)c2ccccc21 | – | 5.25 µM (inactive) | – | > 100 µM (inactive) | > 100 µM (inactive) | – | > 79.8 µM (inactive) | > 100 µM (inactive) | – | > 100 µM (inactive) | > 100 µM (inactive) | > 100 µM (inactive) | > 61.4 µM (inactive) | 4.83 µM (inactive) | > 100 µM (inactive) | > 100 µM (inactive) | > 100 µM (inactive) | 88.1 µM (inactive) | 0.508 µM (active) | > 43.5 µM (inactive) |
